Experimental data as given in ChEMBL document CHEMBL4742395, “Substituted Pyrazole Derivatives As Selective CDK12/13 Inhibitors” (2019).

Experiments:
[1] = molecular target: T1, Cyclin-dependent kinase 12 (Homo sapiens, UniProt Q9NYV4); test: Inhibition of CDK12 (unknown origin) using ULight - 4E - BP1( Thr37 / Thr46 ) as substrate preincubated for 60 mins bu LANCE-TR-FRET assay
Target sequence in this assay (Q9NYV4 whole entry): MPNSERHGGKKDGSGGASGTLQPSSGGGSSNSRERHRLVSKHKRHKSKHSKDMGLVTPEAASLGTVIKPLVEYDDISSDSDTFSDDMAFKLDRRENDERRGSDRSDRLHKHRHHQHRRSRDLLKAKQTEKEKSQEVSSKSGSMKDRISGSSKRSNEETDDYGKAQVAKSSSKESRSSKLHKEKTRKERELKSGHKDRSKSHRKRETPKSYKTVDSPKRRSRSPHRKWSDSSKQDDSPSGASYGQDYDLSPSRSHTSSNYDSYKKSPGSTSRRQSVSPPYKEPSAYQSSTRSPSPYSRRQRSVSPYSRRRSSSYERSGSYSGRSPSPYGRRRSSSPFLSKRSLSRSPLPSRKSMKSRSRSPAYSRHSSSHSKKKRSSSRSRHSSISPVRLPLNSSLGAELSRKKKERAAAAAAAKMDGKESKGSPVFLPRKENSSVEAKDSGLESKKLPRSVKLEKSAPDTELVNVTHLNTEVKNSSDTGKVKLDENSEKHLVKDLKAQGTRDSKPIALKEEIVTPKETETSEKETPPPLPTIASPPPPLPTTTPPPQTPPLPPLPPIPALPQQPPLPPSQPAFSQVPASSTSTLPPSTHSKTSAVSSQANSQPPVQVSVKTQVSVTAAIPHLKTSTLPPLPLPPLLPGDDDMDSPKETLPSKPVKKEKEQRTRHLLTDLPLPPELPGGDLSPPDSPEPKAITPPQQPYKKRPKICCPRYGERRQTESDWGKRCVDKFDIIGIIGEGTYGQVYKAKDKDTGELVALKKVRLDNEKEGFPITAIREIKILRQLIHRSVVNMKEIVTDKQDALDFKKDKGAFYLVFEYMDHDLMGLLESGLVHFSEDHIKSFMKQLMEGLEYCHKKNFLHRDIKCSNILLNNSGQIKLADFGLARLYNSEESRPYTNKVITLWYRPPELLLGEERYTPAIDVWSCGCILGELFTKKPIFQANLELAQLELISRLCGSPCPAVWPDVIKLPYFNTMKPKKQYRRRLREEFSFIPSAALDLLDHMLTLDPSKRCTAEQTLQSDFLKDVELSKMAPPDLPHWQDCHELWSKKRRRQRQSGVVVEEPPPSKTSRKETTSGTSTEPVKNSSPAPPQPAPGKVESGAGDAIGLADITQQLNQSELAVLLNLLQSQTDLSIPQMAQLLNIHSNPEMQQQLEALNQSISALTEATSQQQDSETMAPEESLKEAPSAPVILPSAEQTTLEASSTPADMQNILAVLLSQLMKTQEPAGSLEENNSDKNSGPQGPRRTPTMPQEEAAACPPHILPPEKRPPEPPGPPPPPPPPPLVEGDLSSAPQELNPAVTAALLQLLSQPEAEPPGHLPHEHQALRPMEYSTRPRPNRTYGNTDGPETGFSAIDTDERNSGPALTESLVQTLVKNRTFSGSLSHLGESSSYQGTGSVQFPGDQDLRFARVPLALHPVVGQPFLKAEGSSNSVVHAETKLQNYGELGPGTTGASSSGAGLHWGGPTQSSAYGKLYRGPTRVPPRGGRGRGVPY

[2] = molecular target: Cyclin-dependent kinase 13 (Homo sapiens, UniProt Q14004); test: Binding affinity to CDK13 (unknown origin) by TR-FRET assay
Cyclin-dependent kinase 13, sequence (Q14004 whole entry): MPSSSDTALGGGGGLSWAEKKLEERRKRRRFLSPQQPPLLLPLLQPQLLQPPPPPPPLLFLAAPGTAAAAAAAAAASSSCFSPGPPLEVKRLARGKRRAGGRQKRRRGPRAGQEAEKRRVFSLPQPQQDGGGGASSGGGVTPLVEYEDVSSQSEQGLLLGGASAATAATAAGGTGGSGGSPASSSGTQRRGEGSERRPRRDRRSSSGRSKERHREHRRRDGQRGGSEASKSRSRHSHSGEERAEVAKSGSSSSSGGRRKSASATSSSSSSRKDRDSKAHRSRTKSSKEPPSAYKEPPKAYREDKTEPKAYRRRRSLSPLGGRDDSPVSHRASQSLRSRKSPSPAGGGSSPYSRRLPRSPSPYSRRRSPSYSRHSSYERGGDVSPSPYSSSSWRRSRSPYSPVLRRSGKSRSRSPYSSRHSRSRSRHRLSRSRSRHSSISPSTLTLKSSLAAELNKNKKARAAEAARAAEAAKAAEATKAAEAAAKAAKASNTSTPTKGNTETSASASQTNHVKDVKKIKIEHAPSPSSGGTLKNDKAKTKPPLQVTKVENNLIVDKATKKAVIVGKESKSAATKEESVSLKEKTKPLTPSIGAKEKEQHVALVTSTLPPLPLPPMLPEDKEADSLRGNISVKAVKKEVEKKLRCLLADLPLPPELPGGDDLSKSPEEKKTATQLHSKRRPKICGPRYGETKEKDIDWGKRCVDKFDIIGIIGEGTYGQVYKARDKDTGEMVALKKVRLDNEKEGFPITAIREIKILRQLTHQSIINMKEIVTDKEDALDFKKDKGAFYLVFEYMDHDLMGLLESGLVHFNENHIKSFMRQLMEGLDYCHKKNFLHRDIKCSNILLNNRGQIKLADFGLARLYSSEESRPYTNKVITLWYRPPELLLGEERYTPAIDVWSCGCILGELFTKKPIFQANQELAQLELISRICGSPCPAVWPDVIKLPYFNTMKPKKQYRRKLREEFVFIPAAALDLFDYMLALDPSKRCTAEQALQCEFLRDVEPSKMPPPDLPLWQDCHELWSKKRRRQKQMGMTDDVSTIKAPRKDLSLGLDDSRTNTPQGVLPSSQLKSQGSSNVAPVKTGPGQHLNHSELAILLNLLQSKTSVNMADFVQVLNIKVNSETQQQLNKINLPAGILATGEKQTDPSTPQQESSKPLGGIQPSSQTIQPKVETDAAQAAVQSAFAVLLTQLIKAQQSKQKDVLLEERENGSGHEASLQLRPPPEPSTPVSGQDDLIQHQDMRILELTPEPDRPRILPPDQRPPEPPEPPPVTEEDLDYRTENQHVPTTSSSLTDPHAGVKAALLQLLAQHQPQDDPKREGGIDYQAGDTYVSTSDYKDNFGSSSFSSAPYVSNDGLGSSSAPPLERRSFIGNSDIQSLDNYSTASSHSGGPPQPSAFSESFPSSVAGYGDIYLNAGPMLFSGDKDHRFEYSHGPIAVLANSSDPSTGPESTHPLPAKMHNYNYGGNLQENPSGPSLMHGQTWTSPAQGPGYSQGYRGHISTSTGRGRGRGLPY

[3] = species on record: Homo sapiens; test: Selectivity index, ratio of IC50 for inhibition of CDK7 (unknown origin) to IC50 for inhibition of CDK12 (unknown origin)
[4] = species on record: Homo sapiens; test: Selectivity index, ratio of IC50 for inhibition of CDK7 (unknown origin) to IC50 for binding affinity to CDK13 (unknown origin)
[5] = molecular target: T1, Cyclin-dependent kinase 12; test: Binding affinity to CDK12 in human Jurkat cells assessed as target occupancy after 6 hrs by spectrophotometry; assay type: cell-based
Target sequence in this assay (Q9NYV4 whole entry, looked up): as the sequence (Q9NYV4 whole entry) above

[6] = molecular target: Cyclin-dependent kinase 7 (Homo sapiens) (UniProt P50613); test: Binding affinity to CDK7 in human Jurkat cells assessed as target occupancy after 6 hrs by spectrophotometry; assay type: cell-based
Cyclin-dependent kinase 7 (Homo sapiens), sequence (P50613 whole entry): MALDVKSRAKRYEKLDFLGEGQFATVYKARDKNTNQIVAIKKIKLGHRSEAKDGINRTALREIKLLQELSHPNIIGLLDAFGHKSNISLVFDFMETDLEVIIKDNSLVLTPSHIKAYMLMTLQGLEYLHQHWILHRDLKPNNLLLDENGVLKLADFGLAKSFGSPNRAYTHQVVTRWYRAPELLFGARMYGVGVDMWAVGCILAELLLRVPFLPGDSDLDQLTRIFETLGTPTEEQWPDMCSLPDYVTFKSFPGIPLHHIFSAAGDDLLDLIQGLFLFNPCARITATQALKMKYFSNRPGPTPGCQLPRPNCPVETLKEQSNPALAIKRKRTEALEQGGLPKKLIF

[7] = species on record: Homo sapiens; test: Selectivity index, ratio of target occupancy for CDK7 in human Jurkat cells to target occupancy for CDK12 in human Jurkat cells; assay type: cell-based

SMILES | IC50 [1] | IC50 [2] | Occ50 [5] | Occ50 [6] | Ratio IC50 [3] | Ratio IC50 [4] | Ratio [7]
C=CC(=O)N1CCC=C(c2ccc(CC(=O)Nc3cc(C4CC4)[nH]n3)cn2)C1 | 23 nM | 4 nM | 0.016 µM |  | 75.2 | 432 | 
C=CC(=O)N1CCC(c2ccc(C(C)C(=O)Nc3cc(C4CC4)[nH]n3)cn2)C1 (stereo not given) | 55 nM | 6 nM |  |  |  |  | 
CCN(CC)C/C=C/C(=O)N1CC=C(c2ccc([C@H](C)C(=O)Nc3cc(C4CC4)[nH]n3)cc2)CC1 | 895 nM | 72 nM |  |  |  |  | 
C=CC(=O)N1CC=C(c2ccc(CC(=O)Nc3cc(C4CC4)[nH]n3)cn2)CC1 | 40 nM | 19 nM | 0.025 µM |  |  |  | 
CC#CC(=O)N1CCC=C(c2ccc(CC(=O)Nc3cc(C4CC4)[nH]n3)cn2)C1 | 37 nM | 5 nM |  |  |  |  | 

Continued, in another order:

IC50 [1] | IC50 [2] | Occ50 [5] | Occ50 [6] | SMILES | Ratio IC50 [3] | Ratio IC50 [4] | Ratio [7]
160 nM | 279 nM |  |  | C=CC(=O)N1CCC=C(c2ccc(C(C(=O)Nc3cc(C4CC4)[nH]n3)C(C)C)cc2)C1 (stereo not given) |  |  | 
 |  | 0.305 µM | 130 nM | CC(C(=O)Nc1cc(C2CC2)[nH]n1)c1cccc(C2CCN(C(=O)/C=C/CN(C)C)CC2)c1 (stereo not given) |  |  | 0.425
 |  |  | 1670 nM | C[C@H](C(=O)Nc1cc(C2CC2)[nH]n1)c1ccc(C2=CCN(C(=O)/C=C/CN(C)C)CC2)cc1 |  |  | 
